Measured values taken from patent US6869929B2, “Use of transcription factors for treating inflammation and other diseases” (Beth Israel Deaconess Medical Center, priority 2000, dated 2005).

Legend:
Type in all cases: cell-based, human
[1] = system: COL2A1; test: COL2A1 mRNA time course in C-28/I2 chondrocytes; settings: earlier time points
[2] = system: ESE-1; test: ESE-1 mRNA Northern blot in LB-12 osteoblasts; settings: LB-12 cells
Experimental: U-87 Mg and U-138 Mg (human glioma), THP-1 (human monocytic), RAW 264.7 (murine monocytic), LB-12 (human osteoblast-like large T antigen transformed bone marrow stromal cells), and human chondrocytes were grown and treated with cytokines as described (Apperley, J., et al. 1990. J Bone Mineral Res. 5:S93; Goldring, M. B., et al. 1994. J Clin Invest 94:2307-16; Goldring, S. R., et al. 1983. J Bone Joint Surg 65:575-84; Libermann, T. A., et al. 1987. Embo J. 6:1627-1632).
Total RNA was harvested using QIAshreder (Qiagen) and RNeasy® Mini Kit (Quiagen) or Trizol (Gibco BRL). Poly A^+ RNA was prepared with MicroPoly(A) Pure (Ambion). Northern blots (5 μg total RNA) were hybridized using a full length ESE-1 cDNA probe as described (Oettgen, P., et al. et al. 1997, Mol Cell Biol 17:4419-33.).
Osteoblasts, the bone cells responsible for bone formation, represent another connective tissue cell target of inflammatory cytokines in joint disorders (Bogoch, E. R., and E. Moran. 1998, Can J Surg 41:264-71). […] LB-12 cells were incubated for different times in the absence or presence of IL-1β. […] Since the rapid, but transient induction of ESE-1 resembles that of immediate early genes, we tested the effect of the protein synthesis inhibitor cycloheximide which superinduces expression of certain genes due to mRNA stabilization. Cycloheximide alone had no effect, but superinduced IL-1β-mediated ESE-1 mRNA expression (FIG. 11d).

[3] = system: ESE-1; test: ESE-1 mRNA time course in C-28/I2 chondrocytes; settings: 10 μg/ml, absence or presence of IL-1β, up through 8 h
Experimental: The immortalized human chondrocyte cell lines T/C-28a2 and C-28/I2 (Goldring M B, et al., J Clin Invest 1994;94:2307-16) were cultured in Dulbecco's modified Eagle's medium (DMEM)/Ham's F12 (1/1, v/v; Life Technologies) containing 10% fetal calf serum (FCS; Biowhitaker) and passaged using trypsin-EDTA solution (Life Technologies) at >95% confluency every 5 to 6 days. The temperature-sensitive tsT/AC62 cells (Robbins J R, et al., Arthritis Rheum 2000;43:2189-201) were grown in DMEM/Ham's F12 (1/1, v/v) supplemented with 10% FCS, 10 IU/ml penicillin, 100 μg/ml streptomycin and maintained at 32° C. in 5% CO2 and the culture medium was changed every 3 to 4 days. The cells were grown to confluence and passaged by treatment with trypsin/EDTA as described previously (Robbins J R, et al., Arthritis Rheum 2000;43:2189-201). Suspensions of tsT/AC62 were embedded in alginate and cultured for X days. […]
We first examined the time course of ESE-1 expression at the mRNA level in the C-28/I2 human chondrocyte cell line after treatment with IL-1β for periods of time between 0.5 and 24 h (FIG. 17). In IL-1β-treated quiescent cultures, ESE-1 mRNA was detected at 30 min, increased to peak levels within 4 h, and declined gradually thereafter. […]

Question: With `C[C@@H]1C[C@@H]([C@H](O)CC2CC(=O)NC(=O)C2)C(=O)[C@@H](C)C1` [Cycloheximide, cycloheximide] as the compound, how does the “IL-1β inhibition of COL2A1 mRNA in presence of agent” value [1] read?
Answer: appeared to abolish this inhibition

Question: What about the “IL-1β-mediated ESE-1 mRNA expression in presence of agent” value [2] of the same compound?
Answer: superinduced

Question: And the “ESE-1 mRNA expression, agent alone” value ([2]; 1, 2, 6, 24 hours)?
Answer: had no effect

Question: And the “ESE-1 mRNA levels in presence of agent” value [3]?
Answer: stabilized the levels of ESE-1 mRNA and augmented control and IL-1β-stimulated expression
